Activity calls are given as the source filed them. No rule for the calls is given here.
These compounds were tested against Ubiquitin-conjugating enzyme E2 N (Homo sapiens) (UniProt P61088) (assay: NMR detection of UBE2N ligand binding – biophysical, purified protein (AID 1552)). Details: NMR binding to purified UBE2N.
Chain of Ubiquitin-conjugating enzyme E2 N (Homo sapiens) (P61088 whole entry, looked up): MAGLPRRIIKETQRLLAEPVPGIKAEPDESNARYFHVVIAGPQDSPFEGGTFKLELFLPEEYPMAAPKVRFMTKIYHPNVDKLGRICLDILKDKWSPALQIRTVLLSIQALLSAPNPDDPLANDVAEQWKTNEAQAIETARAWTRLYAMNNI

Row | Structure (SMILES) | Kd
1 | CN(C)C(=O)Oc1ccc(-c2nnco2)cc1 | > 4 mM (inactive)
2 | Nc1cccnc1Oc1ccc(F)cc1F | > 4 mM (inactive)
3 | COc1cc(C(C)=O)cc(OC)c1O | > 4 mM (inactive)
4 | CN1C(=O)c2ccc(C(=O)NCc3ccccc3)cc2C1=O | > 4 mM (inactive)
5 | COc1cc(C2NC(=S)NC(C)=C2C(C)=O)ccc1O (centres undefined) | > 4 mM (inactive)
6 | CC(C)n1c(Nn2cnnc2)nc2ccccc21 | > 4 mM (inactive)
7 | O=C(Nc1ccc(-c2nnco2)cc1)c1ccccc1 | > 4 mM (inactive)
8 | CC1(c2ccncc2)NC(=O)NC1=O (centres undefined) | > 4 mM (inactive)
9 | O=C1CC(=O)N(c2cccc(Cl)c2)N1 | > 4 mM (inactive)
10 | Nc1ccc(S(=O)(=O)Nc2nccs2)cc1 | > 4 mM (inactive)
11 | O=C(O)CNC(=O)c1ccccc1 | > 4 mM (inactive)
12 | NC(=O)Nc1cccc(C(F)(F)F)c1 | > 4 mM (inactive)
13 | O=C(O)c1csc(-c2cccnc2)n1 | > 4 mM (inactive)
14 | CSc1cc(C)[nH]c(=O)n1 | > 4 mM (inactive)
15 | O=C(Cc1c(F)cccc1Cl)Nc1ccncc1 | > 4 mM (inactive)
16 | COc1c(C(=O)N2CCCC2)ccc2ccccc12 | > 4 mM (inactive)
17 | Cn1c(SCc2ccon2)nc2ccccc2c1=O | > 4 mM (inactive)
18 | O=C1Cn2c(nc3ccccc32)N1c1ccccc1F | > 4 mM (inactive)
19 | O=c1cc(-c2ccccc2)oc2cc(O)c(O)c(O)c12 | > 4 mM (inactive)
20 | CSc1nc2nc(C)cc(=O)n2[nH]1 | > 4 mM (inactive)
21 | O=C(O)C1COc2ccccc2C1 (centres undefined) | > 4 mM (inactive)
22 | NC(=O)c1cn(-c2ccccc2)nc1-c1cccnc1 | > 4 mM (inactive)
23 | O=c1cnnc(Nc2ccc(O)cc2)[nH]1 | > 4 mM (inactive)
24 | CC(C)(C)NC(=O)N1CCC(C(N)=O)CC1 | > 4 mM (inactive)

Row | Structure (SMILES) | Kd
25 | COC(=O)CC1NC2CCCCC2NC1=O (centres undefined) | > 4 mM (inactive)
26 | CCSc1nc(N)c(NC(=O)c2ccco2)c(=O)[nH]1 | > 4 mM (inactive)
27 | NC(=O)c1cc(N)ccc1N1CCCCC1 | > 4 mM (inactive)
28 | CCc1ccccc1OCc1nnc(N)s1 | > 4 mM (inactive)
29 | CC(=O)O[C@@H]1CC[C@@]2(C)C(CC[C@]3(C)C2CC=C2C4CC(C)(C)CC[C@]4(C(=O)O)CC[C@]23C)C1(C)C (some centres undefined) | > 4 mM (inactive)
30 | CC(C)(C)c1ccc(SCC(N)=O)cc1 | > 4 mM (inactive)
31 | Nc1ccccc1OC(F)(F)F | > 4 mM (inactive)
32 | O=C1C(=O)N(CNc2ncccn2)c2ccccc21 | > 4 mM (inactive)
33 | CCOC(=O)c1c(C)cc(OC)cc1O | > 4 mM (inactive)
34 | COC(=O)C1Cc2ccccc2N1 (centres undefined) | > 4 mM (inactive)
35 | Nc1cccc(-n2cnnn2)c1 | > 4 mM (inactive)
36 | CC1(C)C2CC(=O)[C@]3(C)C(CC[C@@]4(C)[C@H](c5ccoc5)OC(=O)C5OC543)[C@@]2(C)[C@@H](O)C[C@H]1O (some centres undefined) | > 4 mM (inactive)
37 | COC(=O)c1cc(C)on1 | > 4 mM (inactive)
38 | OC[C@@H](O)[C@@H](O[C@@H]1O[C@H](CO)[C@@H](O)[C@H](O)[C@H]1O)[C@H](O)[C@@H](O)CO | > 4 mM (inactive)
39 | COc1ncnc(N)c1[N+](=O)[O-] | > 4 mM (inactive)
40 | O=C1C2=C(SCCS2)C(=O)N1CCCO | > 4 mM (inactive)
41 | O=C1CSC(=Nc2cc(Cl)ccc2Cl)N1 | > 4 mM (inactive)
42 | N#Cc1c(N)c(C(=O)c2ccccc2)n2c1CCC2 | > 4 mM (inactive)
43 | COc1ncccc1N | > 4 mM (inactive)
44 | COC(=O)N(c1ccccc1)P1(=S)OCCO1 | > 4 mM (inactive)
45 | CC1CN(C(=O)c2ccncc2)CC(C)O1 (centres undefined) | > 4 mM (inactive)
46 | Cc1cc(C)n(-c2nc(N)cc(=O)[nH]2)n1 | > 4 mM (inactive)
47 | O=c1[nH]c2ccccc2c(=O)n1CCCO | > 4 mM (inactive)
48 | COCc1nn2c(N)c(C#N)cnc2c1-c1ccccc1 | > 4 mM (inactive)

Row | Structure (SMILES) | Kd
49 | Cc1ccc(Nc2nnns2)cc1C | > 4 mM (inactive)
50 | Cn1c(=O)c2[nH]c(Nc3ccccc3)nc2n(C)c1=O | > 4 mM (inactive)
51 | O=C1NC(=S)N/C1=C/c1ccc(O)c(Cl)c1 | > 4 mM (inactive)
52 | CCOC(=O)CSc1nnc(C)c(=O)[nH]1 | > 4 mM (inactive)
53 | OCc1ccncc1 | > 4 mM (inactive)
54 | O=C1C=CC(=O)N1c1ccc(N2CCOCC2)cc1 | > 4 mM (inactive)
55 | NC(=O)c1ccc(N2CCCCC2)c(N)c1 | > 4 mM (inactive)
56 | CN1C(=O)/C(=C\c2ccc[nH]2)SC1=S | > 4 mM (inactive)
57 | Oc1ccc(C(=S)N2CCOCC2)cc1 | > 4 mM (inactive)
58 | Cc1occc1C(=O)Nc1nnc(C2CCCCC2)s1 | > 4 mM (inactive)
59 | CC1CC[C@]2(NC1)O[C@H]1CC3C4CC[C@H]5C[C@@H](O)CC[C@]5(C)C4CC[C@]3(C)[C@H]1[C@@H]2C (some centres undefined) | > 4 mM (inactive)
60 | CN(C)C(=O)CCNS(=O)(=O)c1ccccc1 | > 4 mM (inactive)
61 | COC(=O)c1ccc2snnc2c1 | > 4 mM (inactive)
62 | CC(=O)Nc1ccc(-c2nc(C)c(C(C)=O)n2O)cc1 | > 4 mM (inactive)
63 | Cc1cc(C(=O)Nn2cnnc2)cs1 | > 4 mM (inactive)
64 | CC(C)=CCCC1(C)C=Cc2c(O)c3c(c(CC=C(C)C)c2O1)OC12C(=CC4CC1C(C)(C)OC2(C/C=C(/C)C(=O)O)C4O)C3=O (centres undefined) | > 4 mM (inactive)
65 | COC1=CC(=O)C[C@@H](C)[C@]12Oc1c(Cl)c(OC)cc(OC)c1C2=O | > 4 mM (inactive)
66 | CC1CC[C@@]2(OC1)O[C@H]1CC3C4CC[C@@H]5C[C@@H](O)CC[C@]5(C)C4CC[C@]3(C)[C@H]1[C@@H]2C (some centres undefined) | > 4 mM (inactive)
67 | Nc1ccccc1-n1cccn1 | > 4 mM (inactive)
68 | O=C1CCC(=O)N1c1nc2ccccc2s1 | > 4 mM (inactive)
69 | CCOc1ccccc1C(=O)NC1=NCCS1 | > 4 mM (inactive)
70 | Cc1nnsc1C(=O)Nc1ccc(C(N)=O)cc1 | > 4 mM (inactive)
71 | COCCOc1nc2ccccc2nc1C | > 4 mM (inactive)
72 | CC1(C)Cc2c(C#N)c(N)n(-c3ccccc3)c(=O)c2CO1 | > 4 mM (inactive)

Row | Structure (SMILES) | Kd
73 | O=C(O)CCn1cncn1 | > 4 mM (inactive)
74 | Cc1cc(N2CCCC2=O)c(N)cc1N | > 4 mM (inactive)
75 | c1ccc(Cn2cccc2)nc1 | > 4 mM (inactive)
76 | COC(=O)[C@]1(C)CC[C@]2(C)CC[C@]3(C)C4=CC=C5C(=CC(=O)C(O)=C5C)[C@]4(C)CC[C@@]3(C)[C@@H]2C1 | > 4 mM (inactive)
77 | Cc1cc(=O)[nH]c(NCc2cccnc2)n1 | > 4 mM (inactive)
78 | O=C(O)c1cccnc1 | > 4 mM (inactive)
79 | COC(=O)c1oc2ccc(Cl)cc2c1NC(C)=O | > 4 mM (inactive)
80 | CC(=O)Nc1c(C#N)c(C(C)(C)C)cn1C | > 4 mM (inactive)
81 | NC(=O)c1cc2c(n(-c3ccccc3)c1=O)CCCC2=O | > 4 mM (inactive)
82 | COc1ccc(NC(=O)N2CCCCC2)cc1 | > 4 mM (inactive)
83 | COc1ccc(/C=C/c2cc(O)cc(O)c2)cc1 | > 4 mM (inactive)
84 | COc1cc(C/C=C/c2ccccc2)c(OC)cc1O | > 4 mM (inactive)
85 | Cc1cc(=O)n(CCc2ccccc2)c(O)c1C#N | > 4 mM (inactive)
86 | COc1ccc(S(=O)(=O)NCCO)cc1 | > 4 mM (inactive)
87 | O=C(O)Cn1cnc2ccccc2c1=O | > 4 mM (inactive)
88 | O=C1N=c2ccccc2=C1c1sc(=S)[nH]c1O | > 4 mM (inactive)
89 | C=CCCCCCCCCCCCC(O)CC(O)COC(C)=O (centres undefined) | > 4 mM (inactive)
90 | CCC(C)C(=O)O[C@H]1[C@H](O)C2C(CN3CC(C)CCC3[C@@]2(C)O)C2C[C@]34O[C@]5(O)C(OC(=O)C(C)(O)C(C)O)CC[C@@]3(C)C5C(OC(C)=O)[C@@H](OC(C)=O)C4[C@@]21O (some centres undefined) | > 4 mM (inactive)
91 | O=C(CN1C(=O)c2cccc3cccc(c23)C1=O)NO | > 4 mM (inactive)
92 | CSc1ccc(C(=S)N2CCN(C)CC2)cc1 | > 4 mM (inactive)
93 | O=C(Nn1cnnc1)c1csc2ccccc12 | > 4 mM (inactive)
94 | CS(=O)(=O)c1nncn1-c1ccccc1 | > 4 mM (inactive)
95 | Cc1ccc2cc(N)ccc2n1 | > 4 mM (inactive)
96 | O=C(O)CSCC(=O)Nc1cccc(O)c1 | > 4 mM (inactive)

Row | Structure (SMILES) | Kd
97 | CN(C)c1n[nH]c(=O)[nH]c1=O | > 4 mM (inactive)
98 | O=C(O)C1(S(=O)(=O)c2ccccc2)CC1 | > 4 mM (inactive)
99 | Cn1c(NCC(=O)O)nc2c1c(=O)[nH]c(=O)n2C | > 4 mM (inactive)
100 | Cc1cccc(NC(=O)c2ccccc2C(=O)O)c1 | > 4 mM (inactive)
101 | O=C1COc2ccc(C(=O)c3ccccc3)cc2CN1 | > 4 mM (inactive)
102 | Cc1ncoc1C(=O)Nc1ncc([N+](=O)[O-])s1 | > 4 mM (inactive)
103 | O=C(O)[C@H](O)[C@@](O)(Cc1ccc(O)cc1)C(=O)O | > 4 mM (inactive)
104 | Nc1ccc(N2CCCCC2)cc1 | > 4 mM (inactive)
105 | COc1cccc(Oc2ccc(N)cn2)c1 | > 4 mM (inactive)
106 | c1cncc(Nc2nc(-c3ccncc3)cs2)c1 | > 4 mM (inactive)
107 | Cc1cc(C)n2nc(C(=O)Nc3cccnc3)nc2n1 | > 4 mM (inactive)
108 | O=C(NC(=S)NCc1cccnc1)c1ccco1 | > 4 mM (inactive)
109 | O=c1cccc2n1CC1CC2CN2CCCC[C@@H]12 (some centres undefined) | > 4 mM (inactive)
110 | OC1CC(c2ccccc2)NC2(CCCC2)C1 (centres undefined) | > 4 mM (inactive)
111 | CSc1nc(NC(C)(C)C)nc(N2CCOCC2)n1 | > 4 mM (inactive)
112 | Cn1ncc(CO)c1-c1ccccc1 | > 4 mM (inactive)
113 | O=Cc1c(N2CCOCC2)nc2ccccn2c1=O | > 4 mM (inactive)
114 | COc1ccc(/C=C2/N=C(N)SC2=O)cc1 | > 4 mM (inactive)
115 | CC1=CC(=O)C2C(C)(C)CCC[C@]2(C)[C@@]1(O)CCc1ccoc1 (some centres undefined) | > 4 mM (inactive)
116 | O=C1CC(C(=O)O)c2ccccc21 (centres undefined) | > 4 mM (inactive)
117 | Cc1c(C(=O)NC2=NCCS2)oc2ccccc12 | > 4 mM (inactive)
118 | O=C(CS(=O)(=O)c1ccccc1)Nc1nccs1 | > 4 mM (inactive)
119 | CC(=O)NC(O)C(=O)c1ccccc1 (centres undefined) | > 4 mM (inactive)
